The values below come from US9611261B2, “Perfluorinated cyclopropyl fused 1,3-oxazin-2-amine compounds as beta-secretase inhibitors and methods of use” (AMGEN INC., priority 2013, dated 2017).

The structures appear in SMILES notation.

The IC50 is the concentration that inhibits the measured activity by half.

Series [1] has as its target Beta Secretase enzyme (BACE) (Homo sapiens (Human), UniProt P56817). Nature of the series: In vitro enzymatic BACE FRET assay. The class given is biochemical. Particulars: read-out: BACE1 Enzyme assay IC50.
Method: In Vitro Enzymatic BACE FRET (Fluorescence Resonance Energy Transfer) Assay (Enzyme Assay Data in the Example Table I)
The assay buffer used in this screen is 0.05 M acetate, pH 4.2, 10% DMSO final, 100 uM genapol (which is a nonionic detergent, below its Critical Micelle Concentration). […] This assay is effectively started by the addition of FRET substrate (50 nM) and the combination is incubated for one hour. The FRET assay is terminated with by addition of Tris buffer, which raises the pH to neutrality, and the fluorescence is determined. The FRET substrate is a peptide with commercially available fluorophore and quencher, on opposite sides of the BACE cleavage site.
Series [2] addresses Recombinant Cat D (Cathepsin D) (Homo sapiens (Human), UniProt P07339). In words: In vitro enzymatic Cathepsin D (Cat D) FRET assay. It counts as biochemical. The following applies: read-out: CatD IC50.
Method: Recombinant Cat D was expressed in CHO cells. The assay buffer for CathepsinD is 0.05 M citrate pH 3.5, 10% DMSO final, 5 mM CHAPS. […] The assays are effectively started by the addition of different FRET substrates (20 nM for Cat D) and the combination is incubated for one hour. The FRET assay is terminated with by addition of Tris buffer, which raises the pH to neutrality, and the fluorescence is determined. The FRET substrate is a peptide with commercially available fluorophore and quencher, on opposite sides of the BACE cleavage site. […] Proteolytic cleavage of the FRET substrate releases quenching of fluorescence (Cat D excitation 500 nm and emission 580 nm).
The next series relates to Aβ in lumbar CSF. Particulars: healthy volunteers, cited from earlier work.

Chain of Beta Secretase enzyme (BACE) (P56817 46-501, species assumed): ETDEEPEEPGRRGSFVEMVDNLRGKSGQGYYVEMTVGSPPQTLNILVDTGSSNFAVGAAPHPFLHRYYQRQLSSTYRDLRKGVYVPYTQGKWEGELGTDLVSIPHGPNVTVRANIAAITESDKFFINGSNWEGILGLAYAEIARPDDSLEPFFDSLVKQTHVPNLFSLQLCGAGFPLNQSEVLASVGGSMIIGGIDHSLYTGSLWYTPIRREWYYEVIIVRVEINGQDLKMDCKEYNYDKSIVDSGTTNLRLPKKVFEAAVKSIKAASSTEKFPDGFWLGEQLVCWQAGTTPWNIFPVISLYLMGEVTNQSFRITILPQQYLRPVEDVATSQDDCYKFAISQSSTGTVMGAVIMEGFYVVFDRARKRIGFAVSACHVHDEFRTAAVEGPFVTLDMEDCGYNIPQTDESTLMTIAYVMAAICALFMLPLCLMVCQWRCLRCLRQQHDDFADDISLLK
Chain of Recombinant Cat D (Cathepsin D) (P07339 65-412, species assumed): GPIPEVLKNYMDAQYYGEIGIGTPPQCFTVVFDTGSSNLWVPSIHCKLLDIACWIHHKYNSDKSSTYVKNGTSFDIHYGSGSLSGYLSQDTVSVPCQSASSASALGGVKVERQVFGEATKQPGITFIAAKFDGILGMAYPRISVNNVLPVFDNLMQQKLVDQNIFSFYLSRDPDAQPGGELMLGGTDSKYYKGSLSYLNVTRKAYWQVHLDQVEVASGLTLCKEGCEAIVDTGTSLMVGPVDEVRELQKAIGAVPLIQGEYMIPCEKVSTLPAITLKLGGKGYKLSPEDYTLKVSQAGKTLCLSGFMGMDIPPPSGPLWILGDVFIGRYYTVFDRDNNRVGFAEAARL

As for `N#Cc1cnc2c(c1)CC[C@@H]2Nc1ccc(F)c([C@@]2(C(F)F)N=C(N)O[C@@H]3C[C@@H]32)c1` [Example 404], the IC50 in series [1] was 0.291 µM. With `COc1cnc2c(Nc3cc(Cl)c(F)c([C@@]4(CF)N=C(N)O[C@@H]5C[C@@H]54)c3)nccc2n1` [Example 356, (1R,5S,6R)-5-(3-chloro-2-fluoro-5-((2-methoxypyrido[3,4-b]pyrazin-5-yl)amino)phenyl)-5-(fluoromethyl)-2-oxa-4-azabicyclo[4.1.0]hept-3-en-3-amine], the IC50 in series [1] was found to be 0.0659 µM; in series [2], 725 µM. In the same order, the values of `NC1=N[C@@](c2cc(NC(=O)c3cnc(Cl)cn3)ccc2F)(C(F)F)[C@H]2C[C@H]2O1` [Example 261, N-(3-((1R,5S,6R)-3-amino-5-(difluoromethyl)-2-oxa-4-azabicyclo[4.1.0]hept-3-en-5-yl)-4-fluorophenyl)-5-chloropyrazine-2-carboxamide] are 0.037 µM and 444 µM.

On to `C[C@@]1(c2cc(-c3cncnc3)c(F)cc2F)CCSC(N)=N1` [LY2811376, (S)-4-(2,4-difluoro-5-pyrimidin-5-yl-phenyl)-4-methyl-5,6-dihydro-4H-[1,3]thiazin-2-ylamine], for which the “Aβ reductions in lumbar CSF” value in the series on Aβ in lumbar CSF (after oral dosing of 30 or 90 mg) is “Prominent and long-lasting Aβ reductions”. Also, the safety and tolerability entry with Aβ in lumbar CSF (Ph I) is “safe and well tolerated”. In the case of `C[C@@]1(c2cc(NC(=O)c3ccc(Cl)cn3)cnc2F)N=C(N)O[C@H]2C[C@H]21` [Example 333], the results for the IC50 in series [1] and in series [2] were 0.13 µM and 816 µM, respectively. For `COc1cc(Cl)cnc1C(=O)Nc1ccc(Cl)c([C@@]2(CF)N=C(N)O[C@@H]3C[C@@H]32)c1` [Example 297, N-(3-((1R,5S,6R)-3-amino-5-(fluoromethyl)-2-oxa-4-azabicyclo[4.1.0]hept-3-en-5-yl)-4-chlorophenyl)-5-chloro-3-methoxypicolinamide], the IC50 in series [2] was found to be 835 µM. With `N#Cc1ccc2c(c1)OCC[C@@H]2Nc1ccc(F)c([C@@]2(C(F)F)N=C(N)O[C@@H]3C[C@@H]32)c1` (mixture of isomers) [Example 383, (R)-4-((3-((1R,5S,6R)-3-amino-5-(difluoromethyl)-2-oxa-4-azabicyclo[4.1.0]hept-3-en-5-yl)-4-fluorophenyl)amino)chroman-7-carbonitrile and (S)-4-((3-((1R,5S,6R)-3-amino-5-(difluoromethyl)-2-oxa-4-azabicyclo[4.1.0]hept-3-en-5-yl)-4-fluorophenyl)amino)chroman-7-carbonitrile], the IC50 came out at 0.968 µM in series [1] and 206 µM in series [2]. On to `N#Cc1cnc2c(c1)CCC[C@@H]2Nc1ccc(F)c([C@@]2(C(F)F)N=C(N)O[C@@H]3C[C@@H]32)c1` (mixture of isomers) [Example 403, (R)-8-((3-((1R,5S,6R)-3-amino-5-(difluoromethyl)-2-oxa-4-azabicyclo[4.1.0]hept-3-en-5-yl)-4-fluorophenyl)amino)-5,6,7,8-tetrahydroquinoline-3-carbonitrile and (S)-8-((3-((1R,5S,6R)-3-amino-5-(difluoromethyl)-2-oxa-4-azabicyclo[4.1.0]hept-3-en-5-yl)-4-fluorophenyl)amino)-5,6,7,8-tetrahydroquinoline-3-carbonitrile], for which the figures for the IC50 in series [1] and in series [2] were 2.85 µM and 469 µM, respectively. In the same order, the values of `C#CCOc1cnc(C(=O)Nc2cc(F)c(Cl)c([C@]3(CF)N=C(N)O[C@H]4C[C@H]43)c2)cn1` (racemic) [Example 140, N-(3-((1R/S,5S/R,6R/S)-3-amino-5-(fluoromethyl)-2-oxa-4-azabicyclo[4.1.0]hept-3-en-5-yl)-4-chloro-5-fluorophenyl)-5-(prop-2-yn-1-yloxy)pyrazine-2-carboxamide] are 0.006 µM and 86.9 µM.
